Like-named read-outs stand apart in the source and are kept apart here. Ends that are not written are not given here.
Assays:
recombinant GSK3 beta = target: T1, recombinant GSK3 beta (Homo sapiens, UniProt P49841); assay: Surface plasma resonance (SPR) analysis; type: binding
T1 construct: His; made in house; host or cells: Sf9 insect cells; This is inferred: 'the purified recombinant GSK3 beta' points back to the protein of b91
Description: In order to confirm whether niclosamide directly binds to GSK3, surface plasma resonance (SPR) analysis was conducted.
SPR was carried out using ProteOn™ XPR36 Protein Interaction Array system (Bio-Rad Laboratories, Inc., CA, USA), and the purified recombinant GSK3 beta was immobilized on ProteOn GLH sensor chip. The niclosamide or 19-mer wild-type Axin peptide or mutant peptide (VEPQKAAEEAIHRAEAVQR, mutation underlined) was diluted with phosphate-buffered saline+Tween 20+1% DMSO at different concentrations respectively, and then was flowed into the chip at a rate of 100 μl/min, and the result was analyzed by ProteOn Manager Software 2.0 using the standard Langmuir models for fitting kinetic data. The complex formation ratio was represented by an association constant (ka, in the unit of M−1s−1), and the complex decrement ratio was represented by a dissociation constant (kd, in the unit of s−1) as the following equilibrium equation 1.
The high-affinity interaction is represented by the low dissociation constant, and gradual cognition and binding with interactant (rapid “on rate,” or high ka), and stability of complex formation (slow “off rate,” or low kd) are equal to the equation KD=kd/ka.

[1] = relative to paclitaxel; cited from earlier work

T1 sequence (P49841 whole entry): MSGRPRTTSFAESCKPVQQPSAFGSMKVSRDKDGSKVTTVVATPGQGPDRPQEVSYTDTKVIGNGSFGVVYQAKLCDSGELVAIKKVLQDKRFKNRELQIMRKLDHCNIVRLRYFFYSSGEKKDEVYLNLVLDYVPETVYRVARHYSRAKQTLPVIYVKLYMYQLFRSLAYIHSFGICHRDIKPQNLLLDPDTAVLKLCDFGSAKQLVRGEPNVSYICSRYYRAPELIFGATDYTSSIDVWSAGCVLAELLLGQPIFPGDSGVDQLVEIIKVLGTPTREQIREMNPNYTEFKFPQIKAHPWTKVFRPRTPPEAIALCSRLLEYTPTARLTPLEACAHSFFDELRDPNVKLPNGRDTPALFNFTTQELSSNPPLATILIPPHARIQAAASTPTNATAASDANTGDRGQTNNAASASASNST

VEPQKAAEEAIHRAEAVQR [mutant Axin peptide, VEPQKAAEEAIHRAEAVQR]
Kd (recombinant GSK3 beta; immobilized GSK3 protein, read-out: binding to GSK3 (could not bind up to)): > 100 µM

CC[C@H](C)[C@H](NC(=O)[C@H](CC(C)C)NC(=O)[C@H](CCC(=O)O)NC(=O)[C@H](CCC(=O)O)NC(=O)[C@H](C)NC(=O)[C@H](Cc1ccccc1)NC(=O)[C@H](CCCCN)NC(=O)[C@H](CCC(N)=O)NC(=O)[C@@H]1CCCN1C(=O)[C@H](CCC(=O)O)NC(=O)[C@@H](N)C(C)C)C(=O)N[C@@H](Cc1c[nH]cn1)C(=O)N[C@@H](CCCNC(=N)N)C(=O)N[C@@H](CC(C)C)C(=O)N[C@@H](CCC(=O)O)C(=O)N[C@@H](C)C(=O)N[C@H](C(=O)N[C@@H](CCC(N)=O)C(=O)N[C@@H](CCCNC(=N)N)C(=O)O)C(C)C [wild-type Axin peptide, VEPQKFAEELIHRLEAVQR]
Kd (recombinant GSK3 beta; immobilized GSK3 beta, read-out: Equilibrium dissociation constant, KD): 35 µM

CC[C@@H](C(=O)[C@@H](C)[C@@H](O)[C@H](C)[C@@H]1O[C@@H]([C@@H](CC)C(=O)O)CC[C@@H]1C)[C@H]1O[C@]2(C=C[C@@H](O)[C@]3(CC[C@@](C)([C@H]4CC[C@](O)(CC)[C@H](C)O4)O3)O2)[C@H](C)C[C@@H]1C [Salinomycin]
potency in inhibiting cancer differentiation in proportion to paclitaxel [1]: up to 100 times
